Reference: PubChem BioAssay (NCI)
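Briefly, cells in 96-well plates were exposed to five compound concentrations for 48 h, and endpoints were estimated by linear interpolation. TGI is the concentration that stops growth completely.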

Assays:
Assay in all cases: NCI tumour cell line growth inhibition, 48 h
SR leukemia = test system: SR leukemia
CCRF-CEM leukemia = test system: CCRF-CEM leukemia
SNB-19 CNS = test system: SNB-19 CNS
IGROV1 ovarian = test system: IGROV1 ovarian
SK-MEL-28 melanoma = test system: SK-MEL-28 melanoma
SNB-75 CNS = test system: SNB-75 CNS
K-562 leukemia = test system: K-562 leukemia
SF-295 CNS = test system: SF-295 CNS
SW-620 colon = test system: SW-620 colon
NCI-H23 lung = test system: NCI-H23 lung
SK-MEL-5 melanoma = test system: SK-MEL-5 melanoma
HS 578T breast = test system: HS 578T breast
HCC-2998 colon = test system: HCC-2998 colon
M14 melanoma = test system: M14 melanoma
TK-10 renal = test system: TK-10 renal
NCI-H522 lung = test system: NCI-H522 lung
SK-OV-3 ovarian = test system: SK-OV-3 ovarian
U251 CNS = test system: U251 CNS
MDA-N = test system: MDA-N
UACC-62 melanoma = test system: UACC-62 melanoma
EKVX NSCLC = test system: EKVX NSCLC
HCT-116 colon = test system: HCT-116 colon
NCI/ADR-RES ovarian = test system: NCI/ADR-RES ovarian
DU-145 prostate = test system: DU-145 prostate
OVCAR-5 ovarian = test system: OVCAR-5 ovarian
ACHN renal = test system: ACHN renal
HT29 colon = test system: HT29 colon
UACC-257 melanoma = test system: UACC-257 melanoma
SF-268 CNS = test system: SF-268 CNS
HL-60(TB) leukemia = test system: HL-60(TB) leukemia
BT-549 breast = test system: BT-549 breast
SF-539 CNS = test system: SF-539 CNS
PC-3 prostate = test system: PC-3 prostate
MALME-3M melanoma = test system: MALME-3M melanoma
MCF7 breast = test system: MCF7 breast
A549 NSCLC = test system: A549 NSCLC
SK-MEL-2 melanoma = test system: SK-MEL-2 melanoma
OVCAR-8 ovarian = test system: OVCAR-8 ovarian
HCT-15 colon = test system: HCT-15 colon
NCI-H460 lung = test system: NCI-H460 lung
MDA-MB-435 = test system: MDA-MB-435
MOLT-4 leukemia = test system: MOLT-4 leukemia
SN12C renal = test system: SN12C renal
786-0 renal = test system: 786-0 renal
RXF 393 renal = test system: RXF 393 renal
MDA-MB-231 breast = test system: MDA-MB-231 breast
KM12 colon = test system: KM12 colon
HOP-62 NSCLC = test system: HOP-62 NSCLC
OVCAR-3 ovarian = test system: OVCAR-3 ovarian
OVCAR-4 ovarian = test system: OVCAR-4 ovarian
A498 renal = test system: A498 renal
LOX IMVI melanoma = test system: LOX IMVI melanoma
NCI-H226 lung = test system: NCI-H226 lung
CAKI-1 renal = test system: CAKI-1 renal
HOP-92 NSCLC = test system: HOP-92 NSCLC
UO-31 renal = test system: UO-31 renal
COLO 205 colon = test system: COLO 205 colon
RPMI-8226 leukemia = test system: RPMI-8226 leukemia
T-47D breast = test system: T-47D breast

## CC(C)(Br)C(=O)N1CCN(C(c2ccccc2)c2ccccc2)CC1
SR leukemia
  TGI: > 100 µM
CCRF-CEM leukemia
  TGI: > 100 µM
SNB-19 CNS
  TGI: > 100 µM
IGROV1 ovarian
  TGI: > 100 µM
SK-MEL-28 melanoma
  TGI: > 100 µM
SNB-75 CNS
  TGI: > 100 µM
K-562 leukemia
  TGI: > 100 µM
SF-295 CNS
  TGI: > 100 µM
SW-620 colon
  TGI: > 100 µM
NCI-H23 lung
  TGI: > 100 µM
SK-MEL-5 melanoma
  TGI: > 100 µM
HS 578T breast
  TGI: 55.5 µM
HCC-2998 colon
  TGI: > 100 µM
M14 melanoma
  TGI: > 100 µM
TK-10 renal
  TGI: > 100 µM
NCI-H522 lung
  TGI: > 100 µM
SK-OV-3 ovarian
  TGI: > 100 µM
U251 CNS
  TGI: > 100 µM
MDA-N
  TGI: > 100 µM
UACC-62 melanoma
  TGI: > 100 µM
EKVX NSCLC
  TGI: > 100 µM
HCT-116 colon
  TGI: > 100 µM
NCI/ADR-RES ovarian
  TGI: > 100 µM
DU-145 prostate
  TGI: > 100 µM
OVCAR-5 ovarian
  TGI: > 100 µM
ACHN renal
  TGI: > 100 µM
HT29 colon
  TGI: > 100 µM
UACC-257 melanoma
  TGI: > 100 µM
SF-268 CNS
  TGI: > 100 µM
HL-60(TB) leukemia
  TGI: 41.9 µM
BT-549 breast
  TGI: > 100 µM
SF-539 CNS
  TGI: > 100 µM
PC-3 prostate
  TGI: > 100 µM
MALME-3M melanoma
  TGI: > 100 µM
MCF7 breast
  TGI: 81.8 µM
A549 NSCLC
  TGI: > 100 µM
SK-MEL-2 melanoma
  TGI: > 100 µM
OVCAR-8 ovarian
  TGI: > 100 µM
HCT-15 colon
  TGI: > 100 µM
NCI-H460 lung
  TGI: > 100 µM
MDA-MB-435
  TGI: > 100 µM
MOLT-4 leukemia
  TGI: > 100 µM
SN12C renal
  TGI: > 100 µM
786-0 renal
  TGI: > 100 µM
RXF 393 renal
  TGI: 81.2 µM
MDA-MB-231 breast
  TGI: > 100 µM
KM12 colon
  TGI: 31.8 µM
HOP-62 NSCLC
  TGI: > 100 µM
OVCAR-3 ovarian
  TGI: 36.8 µM
OVCAR-4 ovarian
  TGI: > 100 µM
A498 renal
  TGI: > 100 µM
LOX IMVI melanoma
  TGI: > 100 µM
NCI-H226 lung
  TGI: > 100 µM
CAKI-1 renal
  TGI: > 100 µM
HOP-92 NSCLC
  TGI: > 100 µM
UO-31 renal
  TGI: > 100 µM
COLO 205 colon
  TGI: > 100 µM

## c1ccc(-c2nnn3c2NC2=C(CCCC2)C3c2ccccc2)cc1 (stereo unspecified)
SR leukemia
  TGI: 31.1 µM
CCRF-CEM leukemia
  TGI: 31.1 µM
SNB-19 CNS
  TGI: > 100 µM
IGROV1 ovarian
  TGI: 40.2 µM
K-562 leukemia
  TGI: 29.2 µM
SF-295 CNS
  TGI: 49.7 µM
RPMI-8226 leukemia
  TGI: 31.9 µM
SW-620 colon
  TGI: 28.9 µM
NCI-H23 lung
  TGI: 69.4 µM
SK-MEL-5 melanoma
  TGI: 30.1 µM
HS 578T breast
  TGI: 81.7 µM
T-47D breast
  TGI: 49.9 µM
M14 melanoma
  TGI: 35.5 µM
NCI-H522 lung
  TGI: 19.9 µM
SK-OV-3 ovarian
  TGI: 50.7 µM
U251 CNS
  TGI: 26 µM
MDA-N
  TGI: 32.3 µM
UACC-62 melanoma
  TGI: 33.7 µM
HCT-116 colon
  TGI: 24.3 µM
NCI/ADR-RES ovarian
  TGI: 52.4 µM
DU-145 prostate
  TGI: 33.3 µM
OVCAR-5 ovarian
  TGI: 36.9 µM
ACHN renal
  TGI: 3.09 µM
HT29 colon
  TGI: 28.4 µM
UACC-257 melanoma
  TGI: 52.2 µM
SF-268 CNS
  TGI: 48.9 µM
HL-60(TB) leukemia
  TGI: 37.2 µM
SF-539 CNS
  TGI: 35.8 µM
PC-3 prostate
  TGI: 34.3 µM
MCF7 breast
  TGI: 51.9 µM
A549 NSCLC
  TGI: 32.8 µM
SK-MEL-2 melanoma
  TGI: 36 µM
OVCAR-8 ovarian
  TGI: 5.44 µM
HCT-15 colon
  TGI: 3.04 µM
NCI-H460 lung
  TGI: 52.8 µM
MDA-MB-435
  TGI: 20.8 µM
MOLT-4 leukemia
  TGI: 24.7 µM
SN12C renal
  TGI: 51.1 µM
786-0 renal
  TGI: 36.4 µM
RXF 393 renal
  TGI: 34.9 µM
MDA-MB-231 breast
  TGI: 64.6 µM
KM12 colon
  TGI: 31.2 µM
HOP-62 NSCLC
  TGI: 39.2 µM
OVCAR-3 ovarian
  TGI: 37.7 µM
LOX IMVI melanoma
  TGI: 27 µM
NCI-H226 lung
  TGI: > 100 µM
CAKI-1 renal
  TGI: 38.8 µM
UO-31 renal
  TGI: 34.1 µM
COLO 205 colon
  TGI: 30.2 µM
